Measured values taken from patent US20260191863A1, “PYRROLOPYRIMIDINE COMPOSITIONS FOR TREATMENT OF ITK MEDIATED CONDITIONS” (ACLARIS THERAPEUTICS, INC., priority 2022, published 2026).
Where “and” joins values, the source holds several entries; their conditions need not be identical. Equal entries are not always repeated. Where two headings read alike, the source gives them in different places.

How the values were obtained:
[1] = Phase 1 multiple ascending dose (MAD) study: pharmacokinetics; type: in vivo, human; conditions: plasma, oral; for AUC(0-inf): read-out: Geometric Mean AUCINF_obs; for AUC(0-t): read-out: Geometric Mean AUC_0-12; for Tmax: read-out: Geometric Mean Tmax; for AUC: read-out: AUC0-τ
Text: Secondary Endpoints—Compound I plasma concentrations and PK parameters: AUC0-tau, AUC0-inf, Ctrough, Cmax, tmax, Kel, t1/2, CLss/F, Vss/F, Rae.
Overall Design—This was a randomized, Investigator and participant-blind. Sponsor-unblinded, placebo-controlled study designed to evaluate the safety, tolerability, PK, and PD of Compound I in healthy participants. The study consisted of multiple cohorts assessing ascending doses of Compound I.
Approximately 60 participants were enrolled into 5 cohorts. At each dose level/cohort, a total of 10 participants were randomized to receive 2 weeks of oral doses of Compound I (n=8) or placebo (n=2). In Cohort 3, 20 participants were randomized to receive multiple oral doses of Compound I QD (n=8), Compound I TID (n=8), placebo QD (n=2), or placebo TID (n=2).
The study started with a planned dose of 5 mg twice daily (BID). Escalation to the next higher cohort was dependent on safety and PK data from all participants in the previous cohorts and was based on data from at least 6 participants up to at least 48 hours after the last dose. In no instance did the dose escalation steps exceed 3-fold the prior dose level.

ITK & JAK (IFNγ protein) = experiment: Pre-clinical human whole blood αCD3 + IL-15/IFNγ (18 hr); type: cell-based
JAK3 (pSTAT5, lymph) = experiment: Pre-clinical human whole blood IL-2/pSTAT5 (20 min), lymphocytes; type: cell-based; conditions: for EC50: Homo sapiens, Lymphocyte
JAK3 (pSTAT5, CD3+ T) = experiment: Pre-clinical IL2 stimulated pSTAT5 in CD3+ T cells; type: cell-based; conditions: Homo sapiens, T-cell
[2] = Phase 1 SAD study: safety and tolerability; type: in vivo, human
Protocol: Primary Endpoints—Number and percentage of adverse events (AEs) and serious adverse events (SAEs); mean change from baseline in laboratory values, vital signs, and electrocardiograms (ECGs) abnormalities.
Type of Study—This was an FIH, randomized, observer-blind, placebo-controlled study designed to evaluate the safety, tolerability, PK, and PD of Compound I in healthy subjects. The study consisted of: single ascending dose (SAD) cohorts (1-80 mg/day) plus formulation bridging and food effect (FE) cohorts.
Approximately 64 male and female subjects were enrolled into 8 planned cohorts in the SAD study. In each cohort, a total of 8 subjects were randomized to receive a single oral capsule dose of Compound I (n=6) or placebo (n=2) in the morning with approximately 240 mL of water after an overnight fast of at least 8 hours.

[3] = system: IL15 stimulated IFNγ protein; experiment: MAD ex vivo PD: IL15 stimulated IFNγ protein; type: in vivo; conditions: Homo sapiens
Text: Exploratory Endpoints—Mean change from baseline in cellular, extracellular (secreted), and/or message markers of inflammation.
EC50 and IC50 data for αCD3 & αCD28 stimulated IL2mRNA, IL15 stimulated IFNγ protein, and αCD3 & IL15 stimulated IFNγ protein is shown in table 9.

[4] = human, 25 mg, Cohort 4, 25 mg BID, Day 7
[5] = human, 25 mg, Cohort 4, 25 mg BID, Day 15
[6] = human, 30 mg, Cohort 3a, 30 mg QD, Day 1
[7] = human, 30 mg, Cohort 3a, 30 mg QD, Day 7
[8] = human, 30 mg, Cohort 3a, 30 mg QD, Day 15
[9] = human, 40 mg, Cohort 5, 40 mg BID, Day 1
[10] = human, 40 mg, Cohort 5, 40 mg BID, Day 7
[11] = human, 40 mg, Cohort 5, 40 mg BID, Day 15

C=CC(=O)N1C[C@H](Nc2ncnc3[nH]cc([C@H]4CC4(F)F)c23)CC[C@@H]1C [Compound I, 1-((2S,5R)-5-((5-((R)-2,2-difluorocyclopropyl)-7H-pyrrolo[2,3-d]pyrimidin-4-yl)amino)-2-methylpiperidin-1-yl)prop-2-en-1-one]
AUC(0-inf) [1, 4]: 265 ng·h/mL | AUC(0-t) [1, 4]: 260 ng·h/mL | Cmax ([1]; human, 25 mg, Cohort 4, 25 mg BID, Day 7, read-out: Geometric Mean Cmax): 89.6 ng/mL | Tmax [1, 4]: 48.6 min | AUC(0-inf) [1, 5]: 245 ng·h/mL | AUC(0-t) [1, 5]: 240 ng·h/mL | Cmax ([1]; human, 25 mg, Cohort 4, 25 mg BID, Day 15, read-out: Geometric Mean Cmax): 81.8 ng/mL | Tmax [1, 5]: 42.6 min | Cmax ([1]; human, 25 mg, Human 25 mg, read-out: Cmax): 81.8 ng/mL | AUC(0-inf) [1, 6]: 312 ng·h/mL | AUC(0-t) [1, 6]: 308 ng·h/mL | Cmax ([1]; human, 30 mg, Cohort 3a, 30 mg QD, Day 1, read-out: Geometric Mean Cmax): 104 ng/mL | Tmax [1, 6]: 40.8 min | AUC(0-inf) [1, 7]: 375 ng·h/mL | AUC(0-t) [1, 7]: 366 ng·h/mL | Cmax ([1]; human, 30 mg, Cohort 3a, 30 mg QD, Day 7, read-out: Geometric Mean Cmax): 124 ng/mL | Tmax [1, 7]: 52.2 min | AUC(0-inf) [1, 8]: 400 ng·h/mL | AUC(0-t) [1, 8]: 392 ng·h/mL | Cmax ([1]; human, 30 mg, Cohort 3a, 30 mg QD, Day 15, read-out: Geometric Mean Cmax): 119 ng/mL | Tmax [1, 8]: 57.6 min | Cmax ([1]; human, 30 mg, Human 30 mg, read-out: Cmax): 119 ng/mL | AUC(0-inf) [1, 9]: 288 ng·h/mL | AUC(0-t) [1, 9]: 285 ng·h/mL | Cmax ([1]; human, 40 mg, Cohort 5, 40 mg BID, Day 1, read-out: Geometric Mean Cmax): 102 ng/mL | Tmax [1, 9]: 50.4 min | AUC(0-inf) [1, 10]: 487 ng·h/mL | AUC(0-t) [1, 10]: 480 ng·h/mL | Cmax ([1]; human, 40 mg, Cohort 5, 40 mg BID, Day 7, read-out: Geometric Mean Cmax): 158 ng/mL | Tmax [1, 10]: 55.2 min | AUC(0-inf) [1, 11]: 484 ng·h/mL | AUC(0-t) [1, 11]: 472 ng·h/mL | Cmax ([1]; human, 40 mg, Cohort 5, 40 mg BID, Day 15, read-out: Geometric Mean Cmax): 138 ng/mL | Tmax [1, 11]: 63 min | concentration at 6 h ([1]; human, 15 mg BID, steady-state, 6 hours post-dose): 4.3 ng/mL | concentration at 8 h ([1]; human, 25 mg BID, steady-state, 8 hours post-dose): 5.7 ng/mL | concentration at 11.5 h ([1]; human, 30 mg QD, steady-state, 11.5 hours post-dose): ~4 ng/mL | AUC ([1]; Human 15 mg): 110 ng·h/mL | AUC ([1]; Human 25 mg): 240 ng·h/mL | AUC ([1]; Human 30 mg): 392 ng·h/mL | Potency relative to Ritlecitinib, αCD3 + IL-15/IFNγ (18 hr) (ITK & JAK (IFNγ protein)): (3.3 fold*) | IC50 (ITK & JAK (IFNγ protein); Homo sapiens): 0.0036 µg/mL and 10.1 nM | EC50 (ITK & JAK (IFNγ protein); Homo sapiens, 18 h, read-out: Human Whole Blood EC50, αCD3 + IL-15/IFNγ (18 hr)): 10 nM | EC50 (ITK & JAK (IFNγ protein); Homo sapiens, read-out: Pre-clinical EC50): 10.2 ± 4.1 nM | EC50 (ITK & JAK (IFNγ protein); human whole blood dual stimulation, read-out: Human Compound I Cp to reach HWB dual stim EC50 (in vitro report)): ≥ 4.19 ng/mL | Potency relative to Ritlecitinib, IL-2/pSTAT5 (20 min) (JAK3 (pSTAT5, lymph)): (1.2 fold*) | EC50 (JAK3 (pSTAT5, lymph); 20 min, read-out: Human Whole Blood EC50, IL-2/pSTAT5 (20 min)): 136 nM | EC50 (JAK3 (pSTAT5, lymph); read-out: Pre-clinical EC50): 136 ± 51.2 nM | EC50 (JAK3 (pSTAT5, CD3+ T)): 140 ± 49.3 nM | Deaths, serious AEs, discontinuations due to AEs ([2]; SAD): no deaths, serious AEs, or discontinuations due to AEs | Safety and tolerability conclusion ([2]; SAD): safe and well tolerated | Severity of TEAEs ([2]; SAD): mild and transient | Transient increase in CK at follow-up ([2]; SAD highest dose group (80 mg)): 2 subjects | Transient increase in transaminases at follow-up ([2]; SAD highest dose group (80 mg)): 1 subject | Number of TEAEs in Compound I treated subjects ([2]; SAD, 13 subjects): 14 | Changes in WBC count ([2]; SAD, during treatment and at follow-up): No clinically meaningful changes | EC50 [3]: 0.0022 µg/mL and 6.1 nM
